This is an account of results in patent US9974776B2, “Estrogen receptor beta agonists for use in treating mesothelioma” (Karo Pharma AB, priority 2013, dated 2018).

Like-named read-outs stand apart in the source and are kept apart here.

The subject of one assay is REN cells. Briefly: Proliferation assay (Trypan blue viable cell count; wash-off and add-on experiments) in REN cells. As to conditions: concentrations used in Example 2(a), said in b159 to be the respective IC50 concentrations, read-out: IC50 concentration in REN cells. It is filed as cell-based, human. Here is the method:
(§1) Cells were seeded at a density of 10×10^4 cells/well in 6-well plates in RPMI medium supplemented with 10% FBS, 100 μg/ml streptomycin and 10 μg/ml penicillin and incubated over-night at 37° C. in a humidified environment containing 5% CO2 to allow adherence. Following treatment cells were trypsinized and stained with Trypan blue. The number of cells considered viable (unstained cells) was counted in a Bürker haemocytometer within 5 minutes after staining.
Control cultures were maintained in normal growth medium without added drug. The number of viable cells was determined as described for the proliferation assay.
In the add-on experiments the second drug was added directly to the cell culture medium without wash-off of the first drug. […] Control cultures were maintained in normal growth medium without added drug. The number of viable cells was determined as described for the proliferation assay.

The next assay relates to PARP1 cleavage. The assay can be described thus: Western blot of PARP1 cleavage in REN cells. To be noted: agent alone. It is filed as cell-based, human. Here is the method:
Cells were extracted with 1% NP-40 lysis buffer (1% NP-40, 150 mM NaCl, 50 mM Tris-HCl pH 8.5 mM EDTA, 10 mM NaF, 10 mM Na4P2O7, 0.4 mM Na3VO4) with freshly added protease inhibitors (10 μg/ml leupeptin, 4 μg/ml pepstatin and 0.1 Unit/ml aprotinin). For protein extraction from tissues, ˜100 mg of each sample were homogenized, using a Potter-Elvehjem homogenizer device, in 1% NP-40 lysis buffer. Lysates were centrifuged at 13.000×g for 10 minutes at 4° C. and the supernatants were collected and assayed for protein concentration with the Bio-Rad protein assay method.
Proteins were separated by SDS-PAGE under reducing conditions. Following SDS-PAGE, proteins were transferred to nitrocellulose, reacted with specific antibodies and then detected with peroxidase-conjugate secondary antibodies and chemioluminescent ECL reagent. Densitometric analysis was performed using the GS 250 Molecular Image (Bio-Rad).
Levels of PARP1, cleaved PARP1, AKT and phosphorylated AKT in REN cells treated for 24 hours with cisplatin (25, 50 and 100 μM) or pre-treated 2 hours with Compound (I) (10 nM) followed by wash-off and continued growth in normal medium±cisplatin (25, 50 and 100 μM), for an additional 24 hours were also determined by Western blot analysis and relative densitometry. Total AKT and Tubulin staining were used for normalization. PARP1 cleavage was analysed as it is an indicator of apoptotic cell death. As increased AKT activity has been implicated in the control of proliferation, apoptosis and cisplatin resistance (Pinton G., et al, PLoS One (2012) 7:e36856), AKT activation status following different treatments was also analysed.

Another assay relates to MET5A cells. Briefly: Proliferation assay in non-malignant mesothelial MET5A cells. To be noted: 24 hours treatment. It is filed as cell-based. Here is the method: as §1
Cell cultures were pretreated with Compound (I) for 1-16 hours (depending on experiment) followed by wash-off and then replenished with normal growth medium±cisplatin, pemetrexed or cisplatin/pemetrexed. Total incubation time was 24-72 hours (depending on experiment). Control cultures were maintained in normal growth medium without added drug. The number of viable cells was determined as described for the proliferation assay.

Turning to `N.N.[Cl][Pt][Cl]` [cisplatin, reference compound], the values for the IC50 in the assay with REN cells and with MET5A cells were 100 µM and 25 µM, respectively. Also, the “PARP1 cleavage, single agent” value in the assay on PARP1 cleavage is given as “neither cisplatin nor Compound (I) alone resulted in significant PARP1 cleavage”.

`Nc1nc2[nH]cc(CCc3ccc(C(=O)N[C@@H](CCC(=O)O)C(=O)O)cc3)c2c(=O)[nH]1` [pemetrexed, reference compound]: the IC50 in the assay on REN cells (Homo sapiens) came to 22 µM.
